Data reported in article PMC7571155, “Design, Synthesis and Biological Investigation of Flavone Derivatives as Potential Multi-Receptor Atypical Antipsychotics” (Molecules, 2020).

Assays:
[1] = in vivo; conditions: mouse, po
[2] = test system: APO-induced climbing in mice; assay: Apomorphine-induced climbing; assay type: in vivo; conditions: Mus musculus, po, apomorphine 1.0 mg/kg sc
Protocol: Apomorphine-Induced Climbing [1-3].
Animals were placed in Plexiglas cages
for evaluating locomotor activity.
5.3 Catalepsy Test [1-3].
Catalepsy was evaluated on a metal
(§1) A mean immobility score of 30 s was used
(§2) as the criterion for the presence of catalepsy.

[3] = test system: MK-801-induced hyperactivity in mice; assay: MK-801-induced hyperactivity; assay type: in vivo; conditions: Mus musculus, po, MK-801 0.3 mg/kg sc, read-out: MK-80: MK-801-induced hyperactivity ED50
Protocol: Apomorphine-Induced Climbing [1-3].
Animals were placed in Plexiglas cages
for evaluating locomotor activity.
5.3 Catalepsy Test [1-3].
Catalepsy was evaluated on a metal
as §1, §2

[4] = target: hERG potassium channels (Homo sapiens, UniProt Q12809); assay: hERG potassium channel block, patch clamp in HEK cells
[5] = in vivo; conditions: mouse
[6] = target: T1, 5-HT1A receptor (Homo sapiens, UniProt P08908); assay: Intrinsic activity, FLIPR calcium assay, HEK293/5-HT1A; assay type: cell-based; conditions: antagonist mode
T1 construct: expressed in transfected cells; host or cells: HEK293
T1 sequence (P08908 1-422): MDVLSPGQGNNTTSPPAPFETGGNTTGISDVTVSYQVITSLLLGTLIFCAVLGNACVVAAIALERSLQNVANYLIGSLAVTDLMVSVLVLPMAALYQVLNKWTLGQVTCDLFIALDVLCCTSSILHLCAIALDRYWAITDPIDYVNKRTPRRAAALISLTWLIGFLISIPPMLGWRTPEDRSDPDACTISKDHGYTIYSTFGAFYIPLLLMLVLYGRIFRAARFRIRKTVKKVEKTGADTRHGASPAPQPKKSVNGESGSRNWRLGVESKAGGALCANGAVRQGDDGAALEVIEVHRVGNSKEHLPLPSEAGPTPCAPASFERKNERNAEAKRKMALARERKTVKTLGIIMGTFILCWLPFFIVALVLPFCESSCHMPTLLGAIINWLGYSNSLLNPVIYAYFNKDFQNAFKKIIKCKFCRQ

[7] = target: D3 receptor (Rattus norvegicus, UniProt P19020); assay: D3 receptor radioligand binding (3H-7-OH-DPAT)
[8] = target: T2, 5-HT2A receptor (Homo sapiens, UniProt P28223); assay: Intrinsic activity, FLIPR calcium assay, HEK293/5-HT2A; assay type: cell-based; conditions: for inhibition at 10 µM: HEK293, read-out: Inhibition (10 μM, %), 5-HT2A, antagonist mode, 10 μM, n = 3
T2 construct: expressed in transfected cells; host or cells: HEK293

[9] = target: α1 receptor; assay: α1 receptor radioligand binding (3H-prazosin); conditions: rat cerebral cortex, mean ± SEM of three experiments, read-out: Receptor Affinity Ki ± SEM α1
[10] = target: 5-HT2A receptor (Rattus norvegicus, UniProt P14842); assay: 5-HT2A receptor radioligand binding (3H-ketanserin); conditions: Receptor Affinity Ki ± SEM 5-HT2A
[11] = target: T3, D3 receptor (Homo sapiens, UniProt P35462); assay: Intrinsic activity, FLIPR calcium assay, HEK293/ACTOne D3; assay type: cell-based
T3 construct: expressed in transfected cells; host or cells: HEK293/ACTOne

[12] = target: T4, 5-HT2C receptor (Rattus norvegicus, UniProt P08909); assay: 5-HT2C receptor radioligand binding (3H-mesulergine); conditions: rat brain cortex, mean ± SEM of three experiments, read-out: Receptor Affinity Ki ± SEM 5-HT2C
T4 sequence (P08909 33-460): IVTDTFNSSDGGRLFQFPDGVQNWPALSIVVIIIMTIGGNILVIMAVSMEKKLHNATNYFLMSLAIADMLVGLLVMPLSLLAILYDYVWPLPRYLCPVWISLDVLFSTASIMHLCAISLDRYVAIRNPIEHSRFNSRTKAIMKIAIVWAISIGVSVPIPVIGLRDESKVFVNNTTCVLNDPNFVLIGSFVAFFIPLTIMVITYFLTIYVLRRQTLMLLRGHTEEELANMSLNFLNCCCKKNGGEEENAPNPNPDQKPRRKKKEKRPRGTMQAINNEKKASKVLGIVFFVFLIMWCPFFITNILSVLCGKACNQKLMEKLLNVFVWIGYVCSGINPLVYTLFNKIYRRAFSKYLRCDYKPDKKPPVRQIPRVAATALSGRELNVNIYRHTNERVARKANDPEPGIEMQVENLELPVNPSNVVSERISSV

[13] = target: D2 receptor (Rattus norvegicus, UniProt P61169); assay: D2 receptor radioligand binding (3H-spiperone); conditions: for Ki: Receptor Affinity Ki ± SEM D2, rat striatum, 3H-spiperone, mean ± SEM of three experiments; for potency ratio between D2 and 5-HT1A, 5-HT2A: ratio of Ki values
[14] = target: T5, D2L receptor (Homo sapiens, UniProt P14416); assay: Intrinsic activity, FLIPR calcium assay, HEK293/D2L; assay type: cell-based
T5 construct: expressed in transfected cells; host or cells: HEK293

[15] = target: H1 receptor (Cavia porcellus, UniProt P31389); assay: H1 receptor radioligand binding (3H-mepyramine); conditions: guinea pig cerebellum, mean ± SEM of three experiments, read-out: Receptor Affinity Ki ± SEM H1
[16] = rat brain cortex, 3H-ketanserin, mean ± SEM of three experiments

Sequence of D2 receptor (P61169 whole entry): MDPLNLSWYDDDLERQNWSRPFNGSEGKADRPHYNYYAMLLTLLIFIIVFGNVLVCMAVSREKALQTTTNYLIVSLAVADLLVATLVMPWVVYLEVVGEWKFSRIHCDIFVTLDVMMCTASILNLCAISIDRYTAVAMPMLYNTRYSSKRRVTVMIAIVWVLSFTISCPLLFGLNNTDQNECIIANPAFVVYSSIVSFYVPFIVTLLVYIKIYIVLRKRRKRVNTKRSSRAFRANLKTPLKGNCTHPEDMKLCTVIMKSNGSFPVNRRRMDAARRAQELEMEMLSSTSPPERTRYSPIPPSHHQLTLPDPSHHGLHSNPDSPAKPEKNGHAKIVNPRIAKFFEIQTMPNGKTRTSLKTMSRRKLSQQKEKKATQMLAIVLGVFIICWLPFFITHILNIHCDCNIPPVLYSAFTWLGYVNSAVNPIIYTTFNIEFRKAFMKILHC
Sequence of H1 receptor (P31389 whole entry): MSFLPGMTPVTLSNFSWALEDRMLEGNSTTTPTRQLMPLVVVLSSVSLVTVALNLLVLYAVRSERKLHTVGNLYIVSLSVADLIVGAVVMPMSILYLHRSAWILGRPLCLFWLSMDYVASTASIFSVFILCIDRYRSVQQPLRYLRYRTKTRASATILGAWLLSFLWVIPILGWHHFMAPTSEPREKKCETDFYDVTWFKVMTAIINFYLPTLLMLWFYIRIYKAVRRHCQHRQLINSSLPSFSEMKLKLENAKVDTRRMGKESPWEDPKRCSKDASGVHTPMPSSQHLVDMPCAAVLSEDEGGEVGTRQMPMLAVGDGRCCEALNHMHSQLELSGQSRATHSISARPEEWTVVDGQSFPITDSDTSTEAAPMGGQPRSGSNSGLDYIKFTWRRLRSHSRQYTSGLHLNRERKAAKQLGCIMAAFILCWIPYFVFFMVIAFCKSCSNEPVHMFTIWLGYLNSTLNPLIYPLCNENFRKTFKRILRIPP
Sequence of D3 receptor (Rattus norvegicus, UniProt P19020) (P19020 whole entry): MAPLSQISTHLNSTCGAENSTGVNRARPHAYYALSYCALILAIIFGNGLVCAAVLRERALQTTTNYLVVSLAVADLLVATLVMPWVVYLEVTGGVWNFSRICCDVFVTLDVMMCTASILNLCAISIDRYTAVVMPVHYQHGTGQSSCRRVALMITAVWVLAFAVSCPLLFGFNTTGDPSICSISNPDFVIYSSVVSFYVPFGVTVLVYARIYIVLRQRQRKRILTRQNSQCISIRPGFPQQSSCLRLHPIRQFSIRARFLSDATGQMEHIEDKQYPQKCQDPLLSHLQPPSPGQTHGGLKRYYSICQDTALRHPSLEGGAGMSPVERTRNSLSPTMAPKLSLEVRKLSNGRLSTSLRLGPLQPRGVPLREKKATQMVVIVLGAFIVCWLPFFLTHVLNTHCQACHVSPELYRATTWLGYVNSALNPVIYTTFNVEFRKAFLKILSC
T2 sequence (P28223 whole entry): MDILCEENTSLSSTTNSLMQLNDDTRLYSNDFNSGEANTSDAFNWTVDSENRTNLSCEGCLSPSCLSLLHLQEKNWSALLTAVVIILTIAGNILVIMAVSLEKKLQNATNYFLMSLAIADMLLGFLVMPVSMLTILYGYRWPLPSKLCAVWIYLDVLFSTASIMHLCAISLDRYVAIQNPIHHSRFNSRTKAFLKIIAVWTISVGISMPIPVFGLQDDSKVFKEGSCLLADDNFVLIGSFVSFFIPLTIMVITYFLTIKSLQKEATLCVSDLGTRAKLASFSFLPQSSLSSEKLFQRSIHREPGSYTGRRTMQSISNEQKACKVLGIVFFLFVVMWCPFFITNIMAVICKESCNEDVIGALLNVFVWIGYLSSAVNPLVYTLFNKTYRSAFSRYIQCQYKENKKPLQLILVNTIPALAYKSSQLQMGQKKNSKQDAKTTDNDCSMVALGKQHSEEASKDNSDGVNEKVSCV
Sequence of 5-HT2A receptor (Rattus norvegicus, UniProt P14842) (P14842 whole entry): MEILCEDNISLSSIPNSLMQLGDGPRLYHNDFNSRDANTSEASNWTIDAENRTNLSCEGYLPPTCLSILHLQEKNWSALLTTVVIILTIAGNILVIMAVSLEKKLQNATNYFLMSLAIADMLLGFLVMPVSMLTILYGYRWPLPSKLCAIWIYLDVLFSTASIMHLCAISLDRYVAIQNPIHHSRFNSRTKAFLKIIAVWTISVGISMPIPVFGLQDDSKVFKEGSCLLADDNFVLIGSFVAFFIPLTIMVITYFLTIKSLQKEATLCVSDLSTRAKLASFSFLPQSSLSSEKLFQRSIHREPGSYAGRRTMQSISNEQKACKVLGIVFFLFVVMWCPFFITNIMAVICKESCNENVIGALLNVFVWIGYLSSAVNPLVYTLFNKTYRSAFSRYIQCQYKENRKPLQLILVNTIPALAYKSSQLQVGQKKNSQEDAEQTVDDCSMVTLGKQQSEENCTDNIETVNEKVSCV
Sequence of hERG potassium channels (Q12809 whole entry): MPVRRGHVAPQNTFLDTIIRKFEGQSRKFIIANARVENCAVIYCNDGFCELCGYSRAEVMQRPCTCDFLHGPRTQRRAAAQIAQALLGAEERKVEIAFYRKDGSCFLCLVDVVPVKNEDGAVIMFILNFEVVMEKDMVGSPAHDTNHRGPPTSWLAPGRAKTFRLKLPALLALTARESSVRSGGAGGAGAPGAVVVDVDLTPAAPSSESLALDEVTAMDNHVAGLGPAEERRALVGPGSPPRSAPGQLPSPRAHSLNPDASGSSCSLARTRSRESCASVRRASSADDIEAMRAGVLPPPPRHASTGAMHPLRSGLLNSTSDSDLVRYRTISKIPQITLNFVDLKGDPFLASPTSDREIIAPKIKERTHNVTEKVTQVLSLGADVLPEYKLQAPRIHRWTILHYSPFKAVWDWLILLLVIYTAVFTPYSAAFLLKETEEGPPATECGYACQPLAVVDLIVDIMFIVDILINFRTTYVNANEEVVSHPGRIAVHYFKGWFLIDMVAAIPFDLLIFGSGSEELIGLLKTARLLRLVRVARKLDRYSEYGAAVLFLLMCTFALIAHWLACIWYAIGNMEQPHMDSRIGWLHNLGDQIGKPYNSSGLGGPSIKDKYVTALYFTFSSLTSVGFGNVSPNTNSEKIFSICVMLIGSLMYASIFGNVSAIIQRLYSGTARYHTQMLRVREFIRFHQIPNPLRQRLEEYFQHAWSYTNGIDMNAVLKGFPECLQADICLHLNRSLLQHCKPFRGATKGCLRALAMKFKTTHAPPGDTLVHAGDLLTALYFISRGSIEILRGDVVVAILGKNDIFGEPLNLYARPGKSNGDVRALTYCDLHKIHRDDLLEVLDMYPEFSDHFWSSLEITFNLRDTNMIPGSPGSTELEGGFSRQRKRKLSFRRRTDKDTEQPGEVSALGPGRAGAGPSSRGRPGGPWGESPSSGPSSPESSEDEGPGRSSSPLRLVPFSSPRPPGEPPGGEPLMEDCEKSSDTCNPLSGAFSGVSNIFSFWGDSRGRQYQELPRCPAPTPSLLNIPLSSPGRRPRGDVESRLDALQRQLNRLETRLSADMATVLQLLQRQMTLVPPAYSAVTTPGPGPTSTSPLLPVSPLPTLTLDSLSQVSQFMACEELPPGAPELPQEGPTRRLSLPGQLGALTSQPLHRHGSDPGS
T5 sequence (P14416 whole entry): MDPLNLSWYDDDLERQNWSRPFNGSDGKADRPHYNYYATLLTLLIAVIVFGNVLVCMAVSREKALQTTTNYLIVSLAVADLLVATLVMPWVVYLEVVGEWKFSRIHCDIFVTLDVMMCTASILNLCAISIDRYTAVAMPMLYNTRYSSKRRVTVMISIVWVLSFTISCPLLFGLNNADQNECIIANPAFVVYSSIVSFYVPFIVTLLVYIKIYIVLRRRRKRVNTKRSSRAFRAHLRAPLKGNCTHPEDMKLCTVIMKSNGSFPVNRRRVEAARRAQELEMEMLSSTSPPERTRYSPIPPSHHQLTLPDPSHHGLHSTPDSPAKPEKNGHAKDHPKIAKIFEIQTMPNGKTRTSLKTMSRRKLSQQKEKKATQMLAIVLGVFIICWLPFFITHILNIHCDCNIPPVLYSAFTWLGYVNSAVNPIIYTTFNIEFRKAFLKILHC
T3 sequence (P35462 whole entry): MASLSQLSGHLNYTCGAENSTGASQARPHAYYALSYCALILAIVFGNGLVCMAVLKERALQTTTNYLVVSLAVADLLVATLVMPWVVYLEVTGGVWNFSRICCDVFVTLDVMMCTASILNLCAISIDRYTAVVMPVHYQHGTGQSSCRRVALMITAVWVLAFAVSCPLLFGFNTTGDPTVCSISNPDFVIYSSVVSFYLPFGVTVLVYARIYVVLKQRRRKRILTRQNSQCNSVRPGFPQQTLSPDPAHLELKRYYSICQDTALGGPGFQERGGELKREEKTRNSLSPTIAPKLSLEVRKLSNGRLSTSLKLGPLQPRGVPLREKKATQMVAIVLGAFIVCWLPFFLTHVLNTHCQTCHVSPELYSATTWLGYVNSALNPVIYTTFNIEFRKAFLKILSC

| SMILES | ED50 [1] [mg/kg] | ED50 [2] [mg/kg] | ED50 [3] [mg/kg] | IC50 [4] [nM] | Ki [7] [nM] | inhibition at 10 µM [8] [%] | Ki [9] [nM] | Ki [12] [nM] | Ki [13] [nM] | Ki [15] [nM] | Ki [10, 16] [nM] | melting point [°C] | potency ratio between D2 and 5-HT1A, 5-HT2A [13] | further results |
| --- | --- | --- | --- | --- | --- | --- | --- | --- | --- | --- | --- | --- | --- | --- |
| CN1CCN(C2=Nc3cc(Cl)ccc3Nc3ccccc32)CC1 [Clozapine, reference compound] | 50 | 17.9 | 2.28 |  |  |  |  |  |  |  |  |  |  |  |
| CC1(C)CC(=O)c2ccc(OCCCCN3CCC(c4noc5cc(F)ccc45)CC3)cc2O1 [Compound 6j, 7-(4-(4-(6-Fluorobenzo[d]isoxazol-3-yl)piperidin-1-yl)butoxy)-2,2-dimethylchroman-4-one] | 56.8 | 0.19 | 0.16 | 3770 ± 298 | 25.4 ± 3.1 | > 90 | 237 ± 86.4 | 566 ± 75.4 | 12.1 ± 1.5 | 939 ± 101 |  |  |  | LD50 at 24 h [5]: > 2000 mg/kg; IC50 ([6]; 5-HT1A): 201 nM; inhibition at 10 µM ([6]; HEK293, 5-HT1A, 10 μM, n = 3): > 90%; ED50 ([1]; Kun Ming (KM)): 58.4 mg/kg; IC50 [8]: 195 nM; Ki [10]: 3.2 ± 0.4 nM; IC50 [11]: 31.5 nM; inhibition at 10 µM ([11]; HEK293, read-out: Inhibition (10 μM, %), D3, antagonist mode, 10 μM, n = 3): > 90%; IC50 [14]: 8.9 nM; inhibition at 10 µM ([14]; HEK293, read-out: Inhibition (10 μM, %), D2L, antagonist mode, 10 μM, n = 3): > 90% |
| O=C1CC2(CCCC2)Oc2cc(OCCCCN3CCC(c4noc5cc(F)ccc45)CC3)ccc21 [Compound 9d, 7-(4-(4-(6-Fluorobenzo[d]isoxazol-3-yl)piperidin-1-yl)butoxy)spiro[chromane-2,1′-cyclopentan]-4-one] |  |  |  | 3380 ± 352 | 42.6 ± 5.3 |  | 162 ± 57.1 | 426 ± 47.8 | 15.7 ± 1.9 | 784 ± 98.3 | 8.5 ± 0.7 | 103 to 105 | less than 5 |  |
| O=C1CC2(CCCCC2)Oc2cc(OCCCN3CCC(c4noc5cc(F)ccc45)CC3)ccc21 [Compound 9g, 7-(3-(4-(6-Fluorobenzo[d]isoxazol-3-yl)piperidin-1-yl)propoxy)spiro[chromane-2,1′-cyclohexan]-4-one] |  |  |  | 3020 ± 291 | 35.2 ± 2.8 |  | 138 ± 39.8 | 401 ± 55.6 | 18.4 ± 1.8 | 909 ± 78.5 | 9.1 ± 1.1 | 96 to 98 | less than 5 |  |
| O=C1CC2(CCCCC2)Oc2cc(OCCCCN3CCC(c4noc5cc(F)ccc45)CC3)ccc21 [Compound 9h, 7-(4-(4-(6-Fluorobenzo[d]isoxazol-3-yl)piperidin-1-yl)butoxy)spiro[chromane-2,1′-cyclohexan]-4-one] |  |  |  | 3980 ± 411 | 38.6 ± 3.7 |  | 102 ± 50.6 | 528 ± 68.5 | 17 ± 2.3 | 819 ± 91.8 | 7.3 ± 0.4 |  |  |  |
| O=C(c1ccc(F)cc1)C1CCN(CCn2c(=O)[nH]c3ccccc3c2=O)CC1 [ketanserin, reference compound] |  |  |  |  |  | 98.2 ± 2.6 |  |  |  |  |  |  |  |  |
